According to PubChem BioAssay (NCI):
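The concentration for 50% growth inhibition is given as GI50. TGI denotes the concentration required for complete inhibition of growth.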

Columns and labels:
Assay in all cases: NCI-60 cell line screen, 384-well format
[1] = system: SR leukemia
[2] = system: SF-295 CNS
[3] = system: COLO 205 colon
[4] = system: UACC-62 melanoma
[5] = system: CCRF-CEM leukemia
[6] = system: MDA-MB-231 breast
[7] = system: U251 glioblastoma
[8] = system: MCF7 breast
[9] = system: KM12 colon
[10] = system: SF-268 CNS
[11] = system: HCT-15 colon
[12] = system: HL-60(TB) leukemia
[13] = system: MALME-3M melanoma
[14] = system: NCI-H460 NSCLC
[15] = system: SK-MEL-2 melanoma
[16] = system: M14 melanoma
[17] = system: SK-MEL-5 melanoma
[18] = system: SF-539 CNS
[19] = system: HCT-116 colon
[20] = system: UO-31 renal
[21] = system: TK-10 renal
[22] = system: OVCAR-4 ovarian
[23] = system: SNB-19 CNS
[24] = system: 786-0 renal
[25] = system: ACHN renal
[26] = system: A498 renal
[27] = system: RXF 393 renal
[28] = system: SK-MEL-28 melanoma
[29] = system: HCC-2998 colon
[30] = system: MDA-MB-435 melanoma
[31] = system: PC-3 prostate
[32] = system: NCI/ADR-RES ovarian
[33] = system: OVCAR-5 ovarian
[34] = system: NCI-H23 lung
[35] = system: CAKI-1 renal
[36] = system: SW-620 colon
[37] = system: HOP-62 NSCLC
[38] = system: K-562 leukemia
[39] = system: NCI-H322M lung
[40] = system: SK-OV-3 ovarian
[41] = system: SN12C renal
[42] = system: BT-549 breast
[43] = system: EKVX NSCLC
[44] = system: SNB-75 CNS
[45] = system: MDA-MB-468 breast
[46] = system: UACC-257 melanoma
[47] = system: HT29 colon
[48] = system: OVCAR-8 ovarian
[49] = system: A549 NSCLC
[50] = system: OVCAR-3 ovarian
[51] = system: MOLT-4 leukemia
[52] = system: RPMI-8226 leukemia
[53] = system: IGROV1 ovarian
[54] = system: NCI-H226 lung
[55] = system: T-47D breast
[56] = system: HS 578T breast
[57] = system: HOP-92 NSCLC
[58] = system: NCI-H522 lung
[59] = system: LOX IMVI melanoma
[60] = system: DU-145 prostate

O=C(/C=C\n1cnc(-c2cc(C(F)(F)F)cc(C(F)(F)F)c2)n1)NNc1cnccn1
GI50 [1]: 13.7 nM
TGI [1]: 29.8 nM
GI50 [2]: 86 nM
TGI [2]: 1050 nM
GI50 [3]: 84.2 nM
TGI [3]: 4600 nM
GI50 [4]: 106 nM
TGI [4]: 418 nM
GI50 [5]: 91 nM
TGI [5]: 390 nM
GI50 [6]: 51.7 nM
TGI [6]: 244 nM
GI50 [7]: 88.9 nM
TGI [7]: 816 nM
GI50 [8]: 58 nM
TGI [8]: 2150 nM
GI50 [9]: 442 nM
TGI [9]: 3860 nM
GI50 [10]: 40.7 nM
TGI [10]: 310 nM
GI50 [11]: 152 nM
TGI [11]: 1310 nM
GI50 [12]: 41 nM
TGI [12]: 185 nM
GI50 [13]: 142 nM
TGI [13]: 1170 nM
GI50 [14]: 48.3 nM
TGI [14]: 337 nM
GI50 [15]: 119 nM
TGI [15]: 282 nM
GI50 [16]: 353 nM
TGI [16]: 1670 nM
GI50 [17]: 143 nM
TGI [17]: 675 nM
GI50 [18]: 26.2 nM
TGI [18]: 86 nM
GI50 [19]: 60.8 nM
TGI [19]: 504 nM
GI50 [20]: 466 nM
TGI [20]: 4410 nM
GI50 [21]: 126 nM
TGI [21]: 13200 nM
GI50 [22]: 316 nM
TGI [22]: 1040 nM
GI50 [23]: 451 nM
TGI [23]: 8540 nM
GI50 [24]: 59.8 nM
TGI [24]: 3310 nM
GI50 [25]: 250 nM
TGI [25]: 5390 nM
GI50 [26]: 72.8 nM
TGI [26]: 1540 nM
GI50 [27]: 21.6 nM
TGI [27]: 82.7 nM
GI50 [28]: 192 nM
TGI [28]: 1380 nM
GI50 [29]: 46.3 nM
TGI [29]: 530 nM
GI50 [30]: 177 nM
TGI [30]: 721 nM
GI50 [31]: 57.6 nM
TGI [31]: 999 nM
GI50 [32]: 89.1 nM
TGI [32]: 1570 nM
GI50 [33]: 342 nM
TGI [33]: 9930 nM
GI50 [34]: 54.8 nM
TGI [34]: 889 nM
GI50 [35]: 99.7 nM
TGI [35]: 13100 nM
GI50 [36]: 81.8 nM
TGI [36]: 7100 nM
GI50 [37]: 166 nM
TGI [37]: 1170 nM
GI50 [38]: 41.7 nM
TGI [38]: 289 nM
GI50 [39]: 213 nM
TGI [39]: 5260 nM
GI50 [40]: 919 nM
TGI [40]: 13600 nM
GI50 [41]: 655 nM
TGI [41]: 5870 nM
GI50 [42]: 19.9 nM
TGI [42]: 62.1 nM
GI50 [43]: 1340 nM
TGI [43]: 13100 nM
GI50 [44]: 77 nM
TGI [44]: 422 nM
GI50 [45]: 90.3 nM
TGI [45]: 249 nM
GI50 [46]: 977 nM
TGI [46]: 8460 nM
GI50 [47]: 213 nM
TGI [47]: 6540 nM
GI50 [48]: 70.6 nM
TGI [48]: 936 nM
GI50 [49]: 109 nM
TGI [49]: 5620 nM
GI50 [50]: 57.6 nM
TGI [50]: 463 nM
GI50 [51]: 16.3 nM
TGI [51]: 31.1 nM
GI50 [52]: 19.6 nM
TGI [52]: 64.9 nM
GI50 [53]: 424 nM
TGI [53]: 7510 nM
GI50 [54]: 33.8 nM
TGI [54]: 858 nM
GI50 [55]: 165 nM
TGI [55]: 4110 nM
GI50 [56]: 41.1 nM
TGI [56]: 281 nM
GI50 [57]: 194 nM
TGI [57]: 4360 nM
GI50 [58]: 61.1 nM
TGI [58]: 304 nM
GI50 [59]: 144 nM
TGI [59]: 555 nM
GI50 [60]: 274 nM
TGI [60]: 1220 nM
